Results taken from ChEMBL document CHEMBL1125961, “Monodeoxy-1,4:3,6-dianhydrohexitol nitrates” (1991).
Active and inactive are the calls of the source. The rule behind the calls is not given here.

Legend:
Oryctolagus cuniculus = organism: Oryctolagus cuniculus; assay: Compound was evaluated for reduction of arterial medium pressure of rabbit by 30 mm Hg; type: functional, Artery
Rattus norvegicus [1] = assay: Compound was evaluated for T-wave increase of rat EKG measured as percent reduction after 30 min at a dosage of 60 mg/kg; type: functional
Rattus norvegicus [2] = assay: Compound was evaluated for T-wave increase of rat EKG measured as percent reduction after 30 min at a dosage of 8 mg/kg; type: functional
Rattus norvegicus [3] = assay: Compound was evaluated for T-wave increase of rat EKG measured as percent reduction after 30 min at a dosage of 200 mg/kg; type: functional
Rattus norvegicus [4] = assay: Compound was evaluated for T-wave increase of rat EKG measured as percent reduction after 30 min at a dosage of 4 mg/kg; type: functional
Rattus norvegicus [5] = assay: Compound was evaluated for T-wave increase of rat EKG measured as percent reduction after 30 min at a dosage of 100 mg/kg; NE means no effect; type: functional, organism-based; design: dose 100 mg/kg
[6] = Oryctolagus cuniculus, Artery, read-out: ED30

`O=[N+]([O-])OC1CO[C@@H]2C(O)CO[C@H]12` (single isomer, unassigned) [ISOSORBIDE MONONITRATE] was tested, and the ED30 (Oryctolagus cuniculus) was 3.43 mg/kg and the Reduction (Rattus norvegicus [1]) was -43%.
`O=[N+]([O-])O[C@@H]1CO[C@H]2[C@@H]1OC[C@@H]2O` [ISOSORBIDE MONONITRATE] showed an ED30 (Oryctolagus cuniculus) of 0.31 mg/kg and a Reduction (Rattus norvegicus [2]) of -59%.
`O=[N+]([O-])OC1COC2C1OC[C@@H]2Cl` (stereo in doubt; 5b) [listing 1 of 2 here] was tested, and the ED30 (Oryctolagus cuniculus) was 0.14 mg/kg.
Compound `O=[N+]([O-])OC1COC2C1OC[C@@H]2Cl` (stereo in doubt; 5a) has an ED30 (Oryctolagus cuniculus; [6]) of 0.1 mg/kg and a Reduction (Rattus norvegicus [3]) of -38%.
Work on `O=[N+]([O-])O[C@H]1CO[C@H]2[C@@H]1OC[C@H]2O[N+](=O)[O-]` [ISOSORBIDE DINITRATE] yielded a Reduction (Rattus norvegicus [4]) of -75% and an ED30 (Oryctolagus cuniculus; [6]) of 0.08 mg/kg.
With `O=[N+]([O-])OC1COC2C1OC[C@@H]2Cl` (stereo in doubt; 5b) [listing 2 of 2 here] the Reduction (Rattus norvegicus [5]) was “inactive”.
In the case of `O=[N+]([O-])OC1COC2CCOC21` (stereo in doubt; 6b), the ED30 (Oryctolagus cuniculus) is reported as 1 mg/kg and the Reduction (Rattus norvegicus [3]; 200 mg/kg) is reported as -33%.
With `O=[N+]([O-])OC1COC2CCOC21` (stereo in doubt; 6a) the ED30 (Oryctolagus cuniculus; [6]) was 0.6 mg/kg and the Reduction (Rattus norvegicus [3]; 200 mg/kg) was -38%.
